Data on seven compounds can be found in ChEMBL document CHEMBL2177019, “Carbamate derivatives of indolines as cholinesterase inhibitors and antioxidants for the treatment of Alzheimer's disease” (J Med Chem, 2012).

Activity calls are given as the source filed them. The rule behind the calls is not given here.

Series [1] can be described thus: Cytotoxicity against rat H9c2 cells assessed as cell viability in absence of H2O2. Format: cell-based. More on the design: concentration or dose not given beside the values. Particulars: read-out: Activity.
Series [2] is filed under the species Gallus gallus. The series is described as follows: Prevention of apoptosis in chick primary telencephalon neurons assessed as protection against serum deprivation-induced cytotoxicity at 1 to 10 uM by MTT assay. Format: functional. A general note: Formazan colour is commonly taken as a measure of viable cells.
Series [3] can be described thus: Antioxidant activity of the compound assessed as DHR radical scavenging activity at 10 uM by fluorescence assay. Format: functional.
In series [4] the test system is Radical scavenging activity. The series is described as follows: Antioxidant activity of the compound assessed as DPPH radical scavenging at 10 uM after 30 secs by spectrophotometry. The series is classed as functional. On the technique in general: The DPPH test is a chemical assay of radical scavenging.
The nature of series [5]: Antioxidant activity assessed as scavenging of morpholino sydononimine based nitric oxide release by chemiluminescence assay. The series is classed as functional.
Series [6] in a line: Antioxidant activity assessed as scavenging of glucose oxidase-generated H2O2 and hydroxyl radicals by chemiluminescence assay. The series is classed as functional.
Series [7] is filed under the species Gallus gallus. The series is described as follows: Prevention of apoptosis in chick primary telencephalon neurons assessed as protection against serum deprivation-induced oxidative stress at 10 nM measured on day 8 by MTT assay. The series is classed as functional.
Series [8] concerns H9c2. The series is described as follows: Prevention of apoptosis in rat H9c2 cells assessed as protection against oxidative stress-induced cytotoxicity at 100 nM […] by Alamar blue assay. Format: functional. Background: Alamar Blue is a resazurin reagent that responds to reducing activity.
The target in series [9] is T1, Acetylcholinesterase (Bos taurus, UniProt P23795).
T1 sequence (P23795 whole entry): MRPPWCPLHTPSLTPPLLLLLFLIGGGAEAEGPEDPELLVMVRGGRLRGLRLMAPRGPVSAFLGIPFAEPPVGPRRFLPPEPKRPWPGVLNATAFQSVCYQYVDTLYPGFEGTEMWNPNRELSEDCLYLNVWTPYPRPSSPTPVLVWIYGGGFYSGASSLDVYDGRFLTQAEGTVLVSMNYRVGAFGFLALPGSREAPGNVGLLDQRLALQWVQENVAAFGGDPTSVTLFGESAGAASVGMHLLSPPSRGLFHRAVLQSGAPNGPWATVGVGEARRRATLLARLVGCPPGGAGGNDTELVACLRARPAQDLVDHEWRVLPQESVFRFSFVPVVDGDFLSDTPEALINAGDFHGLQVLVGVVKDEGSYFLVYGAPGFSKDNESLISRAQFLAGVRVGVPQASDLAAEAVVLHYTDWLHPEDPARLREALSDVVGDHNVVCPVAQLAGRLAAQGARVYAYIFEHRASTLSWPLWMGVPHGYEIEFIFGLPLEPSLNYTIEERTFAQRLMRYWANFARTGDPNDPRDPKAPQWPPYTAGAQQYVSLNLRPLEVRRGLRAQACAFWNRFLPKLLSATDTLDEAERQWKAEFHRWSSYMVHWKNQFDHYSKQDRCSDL
The series is described as follows: Inhibition of bovine AChE after 120 mins by Ellman's method.

Series [10] in a line: Selectivity ratio of IC50 for equine BuChE to IC50 for bovine AChE.
In series [11] the target is Butyrylcholinesterase (Equus caballus, UniProt Q9N1N9). The series is described as follows: Inhibition of equine BuChE after 120 mins by Ellman's method.
In series [12] the test system is H9c2. The series is described as follows: Prevention of apoptosis in rat H9c2 cardiomyocytes assessed as protection against oxidative stress-induced cytotoxicity at 1 pM to 1 nM after 1 hr by Alamar blue assay. The series is classed as functional.
The nature of series [13]: Antioxidant activity of the compound assessed as scavenging of hydroxyl radical by chemiluminometric method. Format: functional.
Series [14] in a line: Antioxidant activity of the compound assessed as scavenging of peroxynitrite by chemiluminometric method. The series is classed as functional.
Series [15] is described as follows: Chemical stability in MeCN/water solution at 25 degC. The series is classed as physicochemical. Particulars: buffer.
Series [16] can be described thus: Stability in human plasma assessed as compound hydrolysis at 37 degC within 90 mins. The series is classed as ADME, cell-free. The conditions noted are these: read-out: Drug degradation.
Series [17] has as its system Liver. The series is described as follows: Metabolic stability in mouse liver microsomes. The series is classed as ADME, Microsome.
Series [18] relates to Liver microsomes. The series is described as follows: Metabolic stability in human liver microsomes. The series is classed as ADME, Microsome.
Series [19] is described as follows: Chemical stability in MeCN/water solution used as 0.5 mg/mL solution at -20 degC. Format: physicochemical. Particulars: buffer.
A short description of series [20]: Chemical stability in MeCN/water solution used as 50 mg/mL solution at -20 degC. Format: physicochemical. Particulars: buffer.
The nature of series [21]: Chemical stability in MeCN/water solution used as 100 mg/mL solution at room temperature. The series is classed as physicochemical. The conditions noted are these: buffer.

Sequence of Butyrylcholinesterase (Q9N1N9 whole entry): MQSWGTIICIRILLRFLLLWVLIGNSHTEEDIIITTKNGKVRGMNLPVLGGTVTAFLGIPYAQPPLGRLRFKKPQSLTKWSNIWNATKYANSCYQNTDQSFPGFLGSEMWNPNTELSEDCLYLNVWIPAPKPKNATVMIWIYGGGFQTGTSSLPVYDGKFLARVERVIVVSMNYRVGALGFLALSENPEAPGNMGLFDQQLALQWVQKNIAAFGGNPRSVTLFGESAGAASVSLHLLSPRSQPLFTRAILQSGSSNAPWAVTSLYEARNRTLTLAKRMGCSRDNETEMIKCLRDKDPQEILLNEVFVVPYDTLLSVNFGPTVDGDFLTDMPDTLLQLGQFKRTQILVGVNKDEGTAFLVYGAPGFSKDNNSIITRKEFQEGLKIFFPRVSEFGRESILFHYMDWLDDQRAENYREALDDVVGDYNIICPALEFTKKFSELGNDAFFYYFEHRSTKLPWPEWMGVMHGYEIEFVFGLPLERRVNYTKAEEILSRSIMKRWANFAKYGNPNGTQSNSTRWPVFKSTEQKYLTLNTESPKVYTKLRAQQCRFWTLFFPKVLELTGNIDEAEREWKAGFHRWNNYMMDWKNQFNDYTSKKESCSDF

Usually IC50 stands for the concentration that inhibits the measured activity by half. Take `COC(=O)CCC1CNc2cccc(O)c21.Cl` (stereo unspecified): the viability in series [1] worked out at 121%. Besides, the result in [2] and in series [7] was Active. For the same compound, the Activity amounted to 10.6% in series [3], 32.4% in [4] and 57.3% in [8]. Moreover, the half-maximal inhibitory concentration (IC50) was determined as 0.25 µM in series [5] and 0.67 µM in series [6].

For the compound `CCN(C)C(=O)Oc1cccc2c1C(CCC(=O)O)CN2C.Cl` (stereo unspecified), in series [1], the viability worked out at 106%. Moreover, the IC50 in [9] came out at 124 µM; in [11] it was 9.7 µM; in [6], 1.64 µM. Moreover, the Ratio IC50 in [10] stood at 0.078. In addition, the Activity in series [12] was 43%; in series [8] it was 57.4%.

In the case of `CCN(C)C(=O)Oc1cccc2c1C(CCC(=O)OC)CN2` (stereo unspecified), the outcome in series [2] and in [7] was Active. Further, the Ratio IC50 in series [10] came to 0.04. Also, in series [4], the Activity is 24.8%.

As to `CCN(C)C(=O)Oc1cccc2c1CCN2.Cl`, the IC50 in series [9] turned out to be 7.2 µM; in [11], 0.7 µM; in [5], 0.57 µM; in [6], 1.38 µM. Further, the result in series [2] and in [7] was Active. For the same compound, the Ratio IC50 in series [10] amounted to 0.1. For the same compound, the Activity in series [4] amounted to 15%; in [8], 35.3%.

With `COc1ccc2[nH]cc(CCNC(C)=O)c2c1` [MELATONIN], the IC50 in series [13] was 537 µM; in [5], 1020 µM; in series [14] it was 127 µM; in series [6], 95.8 µM.

`CCN(C)C(=O)Oc1cccc2c1C(CCC(=O)OC)CN2.CS(=O)(=O)O` (stereo unspecified): the Stability in series [15] was 9 days; in series [17] it was “Unstable”; in series [18], “Unstable”. Also, the metabolised at […] in series [16] was found to be 40%.

Turning to `CCN(C)C(=O)Oc1ccc2c(c1)NCC2CCC(=O)OC.O=C(O)CC(O)(CC(=O)O)C(=O)O` (stereo unspecified), the Stability entry in series [17] is “Unstable”; in series [19], “Stable”; in series [18], “Unstable”; in series [20], “Stable”; in series [21], “Unstable”.
